We go through one molecule from patent US12582638B2, “Pharmaceutical composition for treating cancer, containing mTOR-signaling inhibitor as active ingredient” (KOREA ADVANCED INSTITUTE OF SCIENCE AND TECHNOLOGY, priority 2020, dated 2026).

The subject of test [1] is p-S6K, p-S6, LC3. Description: Cell signaling assay, western blot, SNU1. The class given is cell-based, human. The conditions noted are these: 0, 5, and 10 μM, FIG. 7f. As to the method:
(§1) Cells treated with various concentration (0, 5, and 10 μM) of lomitapide were lysed with RIPA buffer containing a protease-inhibitor cocktail. The whole-cell lysate was incubated on ice for 30 minutes. After centrifugation at 4° C. and 13,300×g for 15 minutes, the supernatant was collected. For use as controls, cells were treated with 1 μM of torin, known as an mTOR inhibitor.
(§2) For western blot analysis, the supernatant was loaded onto 10% SDS-PAGE gel. The separated proteins were blotted onto a PVDF membrane. Then, the blots were incubated with antibodies at 4° C. for 12 hours as follows (Table 3).
(§3) Then, the blots were washed with TBST (a mixture of tris-buffered saline (TBS) and Tween 20), incubated with horseradish peroxidase-conjugated secondary antibody (Cell signaling) at 37° C. for 1 hour, and washed, followed by detecting enhanced chemiluminescence (ECL; Amersham).
(A western blot detects proteins with antibodies after separation by electrophoresis.)

For test [2], the system named is p-S6K, p-S6, LC3. Description: Cell signaling assay, western blot, HS746T. The test is classed as cell-based, human. The following applies: 0, 5, and 10 μM, FIG. 7e. The method, then: as §1, §2, §3
Test [3] deals with HCT116. Description: RNA-seq assay, gene set enrichment, pathway enrichment and DEG analysis. The test is classed as cell-based, human. The conditions noted are these: FIG. 12. As to the method:
For the final detection of significant gene-sets, gene annotation databases (KEGG pathway, Gene Ontology, etc.) with various biological information about genes were used to discover various gene-sets by grouping genes with specific functions among all the genes used in the RNA-seq experiment. Significant genes were determined with reference to a difference in expression values between the two classes within each gene-set, and statistically significant gene-set was finally detected based on the significant genes. […] In DEG analysis, expression values of genes are measured and statistically processed to select a significant gene candidate group (differentially expression genes) with a difference in expression between a control and a comparison group.

For test [4], the system named is p-S6K, p-S6, LC3. Description: Cell signaling assay, western blot, MDA-MB-231. The class given is cell-based, human. The following applies: 0, 5, and 10 μM, FIG. 7c. The method, then: Cells treated with various concentrations (0, 5, and 10 μM) of lomitapide were lysed with RIPA buffer containing a protease-inhibitor cocktail. The whole-cell lysate was incubated on ice for 30 minutes. After centrifugation at 4° C. and 13,300×g for 15 minutes, the supernatant was collected. For use as controls, HCT116, SW480, HT29, MDA-MB-231, and MDA-MB-468 cells were treated with 1 μM of torin, known as an mTOR inhibitor.
For western blot analysis, the supernatant was loaded onto 10% SDS-PAGE gel. The separated proteins were blotted onto a PVDF membrane. Then, the blots were incubated with antibodies at 4° C. for 12 hours as follows (Table 2).
as §3

The test system of test [5] is colorectal cancer patient-derived organoids. The test is described as follows: Viability assay for organoids derived from colorectal cancer patients (imaging based). The test is classed as cell-based, human. The following applies: two colorectal cancer patient-derived organoids; 72 hours; FIG. 20. As to the method:
Two-type colorectal cancer patient-derived organoids (organoid from males at 01-46 of age and organoid from females at 02-74 of age) were treated with lomitapide and assayed for viability as follows.
Organoids derived from colorectal cancer patients were cultured for 5-7 days on 48-well plates (SPL, cat 32048).
The organoids were separated from the plates by pipetting with 200 μL of Dulbecco's phosphate-buffered saline (DPBS; Welgene LB001-02) and transferred to new tubes.
For staining, the separated organoids and Hoechst (Thermo, #H-1399) were added at a ratio of 1:2,000 to a culture medium and incubated for 30 minutes at 37° C. in a 5% CO2 incubator. […]
Following the dispense, the number, state, and area of organoids were measured through DAPI signals with the aid of the high-contents imaging-based screening device Cytation 5 (Biotek).
Subsequently, organoid areas were monitored three times every 24 hours for 72 hours without changing the culture medium.
The effectiveness of the drug was calculated by applying the raw data derived from Cytation 5 to the following formulas. […]
Each organoid stained with Hoechst was measured for area (μm^2) by using Cytation 5, and areas of the all organoids in each well were summed.
The difference between the organoid area after 72 hours of drug treatment and the organoid area at the first 0 hour was calculated. […]

In test [6] the test system is HCT116 cells. Description: HCT116 mouse xenograft model, tumor size. The test is classed as in vivo. The conditions noted are these: BALB/c nude mice; 50 mg/kg or 25 or 50 mg/kg intraperitoneally, or 10 mg/kg intratumorally; vs DMSO control; FIG. 14. As to the method: Lomitapide was examined for anticancer effect in tumor-implanted mice by monitoring tumor sizes in the mouse xenograft model after treatment with lomitapide.
Animal experiments were conducted according to the guideline approved by the institutional animal care and use committee in the Korean Advanced Institute of Science and Technology. HCT116 cells (4×10^6) were injected subcutaneously into male BALB/c nude mice at 8-12 weeks of age. After an average tumor volume reached 50 mm^3, the mice were randomly divided into two groups (5 mice/group). The mice were measured for weight and tumor size every two days. Tumor sizes were measured using calipers and determined according to formula 0.5×(width)^2×(Length). P-values were determined using Student's T test. Lomitapide was intraperitoneally injected at a dose of 50 mg/kg into the mice at days 1, 2, 3, 7, 8, 9, 13, 14, 15, and 16 after start of the experiment. For a control, DMSO was injected intraperitoneally into the mice (FIG. 14a).
An additional animal experiment was conducted. Lomitapide was intraperitoneally injected at a dose of 25 or 50 mg/kg into mice five times every two days after start of the experiment. Intraperitoneal injection of DMSO into mice was conducted for a control (FIG. 14b). […]

Test [7] deals with HCT116 cells. The test is described as follows: Cell colony forming assay (crystal violet). The class given is cell-based, human. The following applies: 5 μM, 48 hours, vs wells treated without lomitapide. The method, then:
To examine relationship between lomitapide and cancer cell colony forming rate in HCT116 cells, cancer cell colony forming rates were measured after addition of limitapide to HCT116 cells cultured in wells.
HCT116 cells were seeded at a density of 10^5 cells/well into 12-well plates and incubated 37° C. for 24 hours. Subsequently, the cells were incubated with 0 and 5 μM lomitapide at 37° C. for 48 hours in a 5% CO2 atmosphere. Then, 500 μL of crystal violet was added to each well and incubated at room temperature for 10 minutes to stain the cells. From the staining data, the cells were analyzed for growth rate.

In the case of `O=C(NC1CCN(CCCCC2(C(=O)NCC(F)(F)F)c3ccccc3-c3ccccc32)CC1)c1ccccc1-c1ccc(C(F)(F)F)cc1` [lomitapide, N-(2,2,2-trifluoroethyl)-9-[4-[4-[[[4′-(trifluoromethyl)[1,1′-biphenyl]2-yl]carbonyl]amino]-1-piperidinyl]butyl]-9H-fluoren-9-carboxamide], the “conversion from LC3I into LC3II” value in test [1], in test [2] and in test [4] was “increased induction of conversion from LC3I into LC3II” in each case. Also, the “phosphorylation levels of target proteins (p-S6K, p-S6)” value in test [1] (dose-dependent) and in test [2] (dose-dependent) was “remarkably decreased phosphorylation levels” in each case. The “expression of autophagy-related genes ATG family, ULK1, and DDIT4 (DEG analysis)” value in test [3] is on record as “significantly expressed”. Also, the “phosphorylation levels of target proteins (p-S6K and p-S6)” value in test [4] is listed as “remarkably decreased phosphorylation levels”. Moreover, the organoid viability entry in test [5] is on record as “decreased in viability with the increase of the dose”. For the same molecule, in test [6], the “tumor growth (tumor size)” value is given as “grow slowly, compared to the control”. Further, in test [7], the “growth rate (colony forming)” value is recorded as “remarkably lower in growth rate”.
